# Source: US12357623B2, “Method for treating a disease or condition using a pyrazole compound or formulation thereof” (Rigel Pharmaceuticals, Inc., priority 2021, dated 2025)
# What was measured:
# [1] = Rat AUC and percent bioavailability of compound I-1 after administration of potential prodrugs; parameters: species or system Rats; settings: in vivo, parent, iv 1 mg/kg, read-out: Rat AUClast of compound I-1
# [2] = DVS isotherm of spray-dried formulation and crystalline compound I-1; assay type: physicochemical; settings: 25° C.; compared with the dispersion
# Experimental: (§1) FIG. 1 is a dynamic vapor sorption (DVS) plot of percent change in mass versus target relative humidity (RH), illustrating the change in mass of one embodiment of the disclosed spray-dried formulation at 25° C. under various relative humidity conditions. The plot provides two isotherms: 1 is the sorption plot, illustrating the change in mass with increasing relative humidity steps; and 2 is the desorption plot, illustrating the change in mass with decreasing relative humidity steps.
# as §1, with “FIG. 6” for “FIG. 1”, “a DVS” for “a dynamic vapor sorption (DVS)”, “relative humidity,” for “relative humidity (RH),”, “of a crystalline sample of compound I-1” for “of the disclosed spray-dried formulation”
# FIGS. 1-10 provide structural and stability data concerning the spray-dried formulation (FIGS. 1-5) and a crystalline sample of compound I-1 (FIGS. 6-10). FIGS. 1 and 6 provide DVS isotherm plots for the spray-dried formulation and crystalline compound, respectively.
# [3] = Pharmacokinetics in cynomolgus monkeys (co-crystal and spray-dried dispersion capsules); assay type: in vivo; settings: male cynomolgus monkeys (n=3/group), capsule equivalent to 25 mg compound I-1
# Experimental: Two groups of male cynomolgus monkeys (n=3/group) were administered test articles in a 3-way crossover design as indicated in Table 2. The washout period between doses was 3-4 days. Test article capsules were prepared such that each capsule contained an equivalent of 25 mg of free base compound I-1. The organic stock solution of compound I-1 was prepared at a concentration of 5 mg/ml using TPGS/PEG400/PG, and was diluted with apple juice within 1 hour of dosing (PO) at 1 part stock solution to 3 parts apple juice.
# FIGS. 11-14 provide graphs of the plasma concentrations obtained from administering the co-crystal formulations of compound I-1 to monkeys. And Table 3 provides pharmacokinetic (PK) data for the co-crystal formulations, including the average area under the curve (AUC) and percent bioavailability.
# FIG. 19 provides PK data for one embodiment of the disclosed spray-dried formulation, and the organic/juice formulation.
AUC(0-t) [1] [ng·h/mL],change in mass when exposed to higher relative humidity (DVS) [2],percent bioavailability (% F) of compound I-1 [3] [%],Compound
1050,substantially smaller change in mass,–,"CCO[C@H]1CC[C@H](n2cc(NC(=O)c3csc(-c4cn[nH]c4)n3)c(-c3nc(F)ccc3F)n2)CC1 [Compound I-1, N-(3-(3,6-difluoropyridin-2-yl)-1-((1r, 4r)-4-ethoxycyclohexyl)-1H-pyrazol-4-yl)-2-(1H-pyrazol-4-yl)thiazole-4-carboxamide]"
–,–,7.9,"CCO[C@H]1CC[C@H](n2cc(NC(=O)c3csc(-c4cn[nH]c4)n3)c(-c3nc(F)ccc3F)n2)CC1.O=P(O)(O)O [Compound I-104, N-(3-(3,6-difluoropyridin-2-yl)-1-((1r, 4r)-4-ethoxycyclohexyl)-1H-pyrazol-4-yl)-2-(1H-pyrazol-4-yl)thiazole-4-carboxamide phosphate]"
